# Reference: patent US7163952B2, “Azole compound and medicinal use thereof” (Japan Tobacco Inc., priority 2001, dated 2007)
row,melting point,Compound
1,125 to 130 °C,"O=C(O)c1ccc(N(CCC2CCCCC2)c2nc(-c3cc(F)ccc3OCc3ccccc3)cs2)cc1 [Example 174, 4-(N-(4-(2-benzyloxy-5-fluorophenyl)-2-thiazolyl)-N-(2-cyclohexylethyl)amino)benzoic acid]"
2,148 to 150 °C,"Cc1ccc(OCc2ccccc2)c(-c2csc(N(CCC3CCCCC3)c3ccc(C(=O)O)cc3)n2)c1 [Example 175, 4-(N-(4-(2-benzyloxy-5-methylphenyl)-2-thiazolyl)-N-(2-cyclohexylethyl)amino)benzoic acid]"
3,190 to 192 °C,"CC(C)c1ccc(COc2ccc(Cl)cc2-c2csc(N(CCC3CCCCC3)c3ccc(C(=O)O)cc3)n2)cc1 [Example 176, 4-(N-(4-(5-chloro-2-(4-isopropylbenzyloxy)phenyl)-2-thiazolyl)-N-(2-cyclohexylethyl)amino)benzoic acid]"
4,170 to 175 °C,"O=C(O)c1ccc(N(CCC2CCCCC2)c2nc(-c3cc(Cl)ccc3OCc3ccc(C(F)(F)F)cc3)cs2)cc1 [Example 177, 4-(N-(4-(5-chloro-2-(4-trifluoromethylbenzyloxy)phenyl)-2-thiazolyl)-N-(2-cyclohexylethyl)amino)benzoic acid]"
5,195 to 198 °C,"O=C(O)c1ccc(N(CCC2CCCCC2)c2nc(-c3cc(Cl)ccc3OCc3ccc(Cl)c(Cl)c3)cs2)cc1 [Example 178, 4-(N-(4-(5-chloro-2-(3,4-dichlorobenzyloxy)phenyl)-2-thiazolyl)-N-(2-cyclohexylethyl)amino)benzoic acid]"
6,134 to 140 °C,"O=C(O)c1ccc(Nc2nc(-c3cc(Cl)ccc3OCc3ccc(C(F)(F)F)cc3)cs2)c(OCCC2CCCCC2)c1 [Example 179, 4-(4-(5-chloro-2-(4-trifluoromethylbenzyloxy)phenyl)-2-thiazolylamino)-3-(2-cyclohexylethoxy)benzoic acid]"
7,227 to 230 °C,"COc1ccc(OCc2ccc(C(F)(F)F)cc2)c(-c2csc(Nc3ccc(C(=O)O)cc3OCc3ccccc3)n2)c1 [Example 180, 3-benzyloxy-4-(4-(5-methoxy-2-(4-trifluoromethylbenzyloxy)phenyl)-2-thiazolylamino)benzoic acid]"
8,98 to 100 °C,"O=C(O)c1cccc(N(CC2CCCCC2)c2nc(-c3cc(Cl)ccc3OCc3ccccc3)cs2)c1 [Example 181, 3-(N-(4-(2-benzyloxy-5-chlorophenyl)-2-thiazolyl)-N-cyclohexylmethylamino)benzoic acid]"
9,216 to 218 °C,"CCCCN(c1ccc(C(=O)O)cc1)c1nc(-c2cc(Cl)ccc2OCc2ccc(C(F)(F)F)cc2)cs1 [Example 182, 4-(N-butyl-N-(4-(5-chloro-2-(4-trifluoromethylbenzyloxy)phenyl)-2-thiazolyl)amino)benzoic acid]"
10,230 °C,"CC(C)N(c1ccc(C(=O)O)cc1)c1nc(-c2nc3ccc(OCc4ccc(Cl)c(Cl)c4)cc3o2)cs1 [Example 183, 4-(N-(4-(6-(3,4-dichlorobenzyloxy)-2-benzooxazolyl)-2-thiazolyl)-N-isopropylamino)benzoic acid]"
11,195 to 197 °C,"O=C(O)c1ccc(N(CCC2CCCCC2)c2nc(-c3nc4ccc(OCc5ccc(Cl)c(Cl)c5)cc4o3)cs2)cc1 [Example 184, 4-(N-(2-cyclohexylethyl)-N-(4-(6-(3,4-dichlorobenzyloxy)-2-benzooxazolyl)-2-thiazolyl)amino)benzoic acid]"
12,182 to 189 °C,"O=C(O)c1ccc(N(CC2CCCCC2)c2nc(-c3nc4ccc(OCc5ccc(Cl)c(Cl)c5)cc4o3)cs2)cc1 [Example 187, 4-(N-cyclohexylmethyl-N-(4-(6-(3,4-dichlorobenzyloxy)-2-benzooxazolyl)-2-thiazolyl)amino)benzoic acid]"
13,230 °C (dec.),"CC(C)(C)c1ccc(COc2ccc3nc(-c4csc(N(CC5CCCCC5)c5ccc(C(=O)O)cc5)n4)oc3c2)cc1 [Example 188, 4-(N-(4-(6-(4-tert-butylbenzyloxy)-2-benzooxazolyl)-2-thiazolyl)-N-cyclohexylmethylamino)benzoic acid]"
14,213 to 214 °C,"O=C(O)c1ccc(N(CC2CCCCC2)c2nc(-c3nc4ccc(OCc5ccc(C(F)(F)F)cc5C(F)(F)F)cc4o3)cs2)cc1 [Example 189, 4-(N-(4-(6-(2,4-bis(trifluoromethyl)benzyloxy)-2-benzooxazolyl)-2-thiazolyl)-N-cyclohexylmethylamino)benzoic acid]"
15,228 to 230 °C,"O=C(O)c1ccc(N(CC2CCCCC2)c2nc(-c3nc4ccc(OCc5ccc(F)c(F)c5)cc4o3)cs2)cc1 [Example 190, 4-(N-cyclohexylmethyl-N-(4-(6-(3,4-difluorobenzyloxy)-2-benzooxazolyl)-2-thiazolyl)amino)benzoic acid]"
16,160 to 162 °C,"COc1cc(COc2ccc3nc(-c4csc(N(CC5CCCCC5)c5ccc(C(=O)O)cc5)n4)oc3c2)cc(OC)c1 [Example 191, 4-(N-cyclohexylmethyl-N-(4-(6-(3,5-dimethoxybenzyloxy)-2-benzooxazolyl)-2-thiazolyl)amino)benzoic acid]"

# Further lines, the compound ahead of its results:
row,Compound,melting point
1,"COc1ccc(OCc2ccc(C(F)(F)F)cc2)c(-c2csc(Nc3ccc(C(=O)O)cc3)n2)c1 [Example 155, 4-(4-(5-methoxy-2-(4-trifluoromethylbenzyloxy)phenyl)-2-thiazolylamino)benzoic acid]",218 to 219 °C
2,"COc1ccc(OCc2ccccc2)c(-c2csc(Nc3ccc(C(=O)O)cc3OCc3ccccc3)n2)c1 [Example 156, 3-benzyloxy-4-(4-(2-benzyloxy-5-methoxyphenyl)-2-thiazolylamino)benzoic acid]",218 to 221 °C
3,"COc1ccc(OCc2ccc(C3CCCCC3)cc2)c(-c2csc(Nc3ccc(C(=O)O)cc3)n2)c1 [Example 157, 4-(4-(2-(4-cyclohexylbenzyloxy)-5-methoxyphenyl)-2-thiazolylamino)benzoic acid]",230 to 234 °C
4,"O=C(O)c1cc(Cc2nc(-c3cc(Cl)ccc3OCc3ccccc3)cs2)ccc1O [Example 158, 5-(4-(2-benzyloxy-5-chlorophenyl)-2-thiazolylmethyl)-2-hydroxybenzoic acid]",212 to 213 °C
5,"O=C(O)c1ccc(N(Cc2ccc(C(F)(F)F)cc2)c2nc(-c3cc(Cl)ccc3OCc3ccccc3)cs2)cc1 [Example 159, 4-(N-(4-(2-benzyloxy-5-chlorophenyl)-2-thiazolyl)-N-(4-trifluoromethylbenzyl)amino)benzoic acid]",194 to 196 °C
6,"O=C(O)c1ccc(N(CC2CCCCC2)c2nc(-c3cc(Cl)ccc3OCc3ccccc3)cs2)cc1 [Example 160, 4-(N-(4-(2-benzyloxy-5-chlorophenyl)-2-thiazolyl)-N-cyclohexylmethylamino)benzoic acid]",184 to 185 °C
7,"O=C(O)c1ccc(CNc2nc(-c3cc(Cl)ccc3OCc3ccccc3)cs2)cc1 [Example 162, 4-((4-(2-benzyloxy-5-chlorophenyl)-2-thiazolylamino)methyl)benzoic acid]",210 to 211 °C
8,"CN(Cc1ccc(C(=O)O)cc1)c1nc(-c2cc(Cl)ccc2OCc2ccccc2)cs1 [Example 163, 4-((N-(4-(2-benzyloxy-5-chlorophenyl)-2-thiazolyl)-N-methylamino)methyl)benzoic acid]",169 to 171 °C
9,"O=C(O)c1ccc(CN(CCC2CCCCC2)c2nc(-c3cc(Cl)ccc3OCc3ccccc3)cs2)cc1 [Example 164, 4-((N-(4-(2-benzyloxy-5-chlorophenyl)-2-thiazolyl)-N-(2-cyclohexylethyl)amino)methyl)benzoic acid]",158 to 160 °C
10,"O=C(O)c1ccc(CN(CCC2CCCCC2)c2nc(-c3cc(Cl)ccc3OCc3ccc(C(F)(F)F)cc3)cs2)cc1 [Example 165, 4-((N-(4-(5-chloro-2-(4-trifluoromethylbenzyloxy)phenyl)-2-thiazolyl)-N-(2-cyclohexylethyl)amino)methyl)benzoic acid]",171 to 172 °C
11,"COc1ccc(OCc2ccc(C(F)(F)F)cc2)c(-c2csc(N(CCC3CCCCC3)Cc3ccc(C(=O)O)cc3)n2)c1 [Example 166, 4-((N-(2-cyclohexylethyl)-N-(4-(5-methoxy-2-(4-trifluoromethylbenzyloxy)phenyl)-2-thiazolyl)amino)methyl)benzoic acid]",183 to 184 °C
12,"O=C(O)c1ccc(N(Cc2ccc(Cl)c(Cl)c2)c2nc(-c3cc(Cl)ccc3OCc3ccccc3)cs2)cc1 [Example 167, 4-(N-(4-(2-benzyloxy-5-chlorophenyl)-2-thiazolyl)-N-(3,4-dichlorobenzyl)amino)benzoic acid]",196 to 198 °C
13,"CC(C)CCN(c1ccc(C(=O)O)cc1)c1nc(-c2cc(Cl)ccc2OCc2ccccc2)cs1 [Example 168, 4-(N-(4-(2-benzyloxy-5-chlorophenyl)-2-thiazolyl)-N-(3-methylbutyl)amino)benzoic acid]",143 to 149 °C
14,"COc1ccc(OCc2ccccc2)c(-c2csc(N(CCC3CCCCC3)c3ccc(C(=O)O)cc3)n2)c1 [Example 169, 4-(N-(4-(2-benzyloxy-5-methoxyphenyl)-2-thiazolyl)-N-(2-cyclohexylethyl)amino)benzoic acid]",132 to 137 °C
15,"COc1ccc(OCc2ccc(C(F)(F)F)cc2)c(-c2csc(N(CCC3CCCCC3)c3ccc(C(=O)O)cc3)n2)c1 [Example 170, 4-(N-(2-cyclohexylethyl)-N-(4-(5-methoxy-2-(4-trifluoromethylbenzyloxy)phenyl)-2-thiazolyl)amino)benzoic acid]",104 to 107 °C
16,"COc1ccc(OCc2ccc(C(F)(F)F)cc2)c(-c2csc(Nc3ccc(C(=O)O)cc3OCCC3CCCCC3)n2)c1 [Example 171, 3-(2-cyclohexylethoxy)-4-(4-(5-methoxy-2-(4-trifluoromethylbenzyloxy)phenyl)-2-thiazolylamino)benzoic acid]",111 to 114 °C
17,"O=C(O)c1cccc(N(CCC2CCCCC2)c2nc(-c3cc(Cl)ccc3OCc3ccccc3)cs2)c1 [Example 172, 3-(N-(4-(2-benzyloxy-5-chlorophenyl)-2-thiazolyl)-N-(2-cyclohexylethyl)amino)benzoic acid]",170 to 171 °C
18,"CC(C)c1ccc(COc2ccc(Cl)cc2-c2csc(Nc3ccc(C(=O)O)cc3)n2)cc1 [Example 173, 4-(4-(5-chloro-2-(4-isopropylbenzyloxy)phenyl)-2-thiazolylamino)benzoic acid]",215 to 218 °C
